This is an account of results in ChEMBL document CHEMBL1131889, “Synthesis and acetylcholinesterase inhibitory activity of huperzine A-E2020 combined compound” (Bioorg Med Chem Lett, 1999).

Each structure is given as a SMILES string.

The test has as its target T1, Acetylcholinesterase (Rattus norvegicus, UniProt P37136).
T1 sequence (P37136 whole entry): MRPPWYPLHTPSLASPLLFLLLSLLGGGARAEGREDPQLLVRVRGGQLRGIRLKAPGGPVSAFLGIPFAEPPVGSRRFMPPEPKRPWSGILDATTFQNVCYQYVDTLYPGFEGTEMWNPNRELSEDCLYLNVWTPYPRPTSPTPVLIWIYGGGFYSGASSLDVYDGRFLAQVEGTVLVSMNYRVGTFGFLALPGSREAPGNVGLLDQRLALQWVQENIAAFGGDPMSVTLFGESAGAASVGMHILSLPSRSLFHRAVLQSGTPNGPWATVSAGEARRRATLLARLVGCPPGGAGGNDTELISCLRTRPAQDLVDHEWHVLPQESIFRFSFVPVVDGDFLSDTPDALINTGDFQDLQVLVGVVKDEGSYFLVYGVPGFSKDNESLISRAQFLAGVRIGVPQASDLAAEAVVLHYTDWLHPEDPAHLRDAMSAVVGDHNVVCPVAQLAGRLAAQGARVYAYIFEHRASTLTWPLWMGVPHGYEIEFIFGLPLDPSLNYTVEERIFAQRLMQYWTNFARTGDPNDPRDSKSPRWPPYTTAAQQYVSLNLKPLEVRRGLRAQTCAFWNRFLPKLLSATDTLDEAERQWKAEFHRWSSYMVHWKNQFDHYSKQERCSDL
The experiment in a line: Inhibitory activity against Acetylcholinesterase (AChE) in rat brain hippocampal crude homogenate. It counts as tissue-based, Hippocampus.
A word on the IC50: it is the concentration at which inhibition is half-maximal. Higher therefore signals a need for much substance. The compound `CC1(NCC2CCN(Cc3ccccc3)CC2)c2ccc(O)nc2CCC1O` (stereo not drawn) displayed an IC50 greater than 190 µM.
In turn, `COc1ccc2c(n1)CCC(OC)C2(C)NCC1CCN(Cc2ccccc2)CC1` (stereo not drawn) had an IC50 greater than 177 µM.
Next, `COc1ccc2c(n1)CCC(OC)C2(C)NC(=O)C1CCN(Cc2ccccc2)CC1` (stereo not drawn): 17.2 µM.
